# How the values were obtained:
# Type in all cases: in vivo
# [1] = tested on: velvetleaf (Abutilon theophrasti); assay: Test G Post-Emergence Protocol; conditions: Abutilon theophrasti, post-emergence, 312 h; for pest or weed control at 15.625 g/ha: 15.625 g ai/ha, evaluated after 13 days (100=total damage to plant; 0=no damage to plant), read-out: Velvetleaf damage rating; for pest or weed control at 62.5 g/ha: 62.5 g ai/ha, read-out: Velvetleaf damage rating (100=total damage to plant; 0=no damage to plant); for pest or weed control at 62.5 g/ha / pest or weed control at 250 g/ha: evaluated after 13 days; for pest or weed control at 250 g/ha: 250 g ai/ha, read-out: damage to plant, Velvetleaf (100=total damage to plant; 0=no damage to plant)
# Outline: (§1)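 Sow in soil; grow 8 d (24/16 °C, 14 h light, 65% humidity); spray 15.625/62.5/250 g/ha in acetone:water 50:50 + 0.5% Tween 20; grow on, water twice daily; score damage 0–100 at 13 d.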
# corn (Zea mays) [2] = assay: Test G Post-Emergence Protocol; conditions: Zea mays, post-emergence, 312 h; for plant injury at 15.625 g/ha: 15.625 g ai/ha, evaluated after 13 days (100=total damage to plant; 0=no damage to plant), read-out: Corn damage rating; for plant injury at 62.5 g/ha: 62.5 g ai/ha, read-out: Corn damage rating (100=total damage to plant; 0=no damage to plant); for plant injury at 62.5 g/ha / plant injury at 250 g/ha: evaluated after 13 days; for plant injury at 250 g/ha: 250 g ai/ha, read-out: damage to plant, Corn (100=total damage to plant; 0=no damage to plant)
# Outline: as §1
# [3] = tested on: giant foxtail (Setaria faberi); assay: Test G Post-Emergence Protocol; conditions: Setaria faberi, post-emergence, 312 h; for pest or weed control at 15.625 g/ha: 15.625 g ai/ha, evaluated after 13 days (100=total damage to plant; 0=no damage to plant), read-out: Foxtail, Giant damage rating; for pest or weed control at 62.5 g/ha: 62.5 g ai/ha, read-out: Foxtail, Giant damage rating (100=total damage to plant; 0=no damage to plant); for pest or weed control at 62.5 g/ha / pest or weed control at 250 g/ha: evaluated after 13 days; for pest or weed control at 250 g/ha: 250 g ai/ha, read-out: damage to plant, Foxtail, Giant (100=total damage to plant; 0=no damage to plant)
# Outline: as §1
# [4] = tested on: barnyardgrass (Echinochloa crus-galli); assay: Test G Post-Emergence Protocol; conditions: Echinochloa crus-galli, post-emergence, 312 h; for pest or weed control at 15.625 g/ha: 15.625 g ai/ha, evaluated after 13 days (100=total damage to plant; 0=no damage to plant), read-out: Barnyardgrass damage rating; for pest or weed control at 62.5 g/ha: 62.5 g ai/ha, read-out: Barnyardgrass damage rating (100=total damage to plant; 0=no damage to plant); for pest or weed control at 62.5 g/ha / pest or weed control at 250 g/ha: evaluated after 13 days; for pest or weed control at 250 g/ha: 250 g ai/ha, read-out: damage to plant, Barnyardgrass (100=total damage to plant; 0=no damage to plant)
# Outline: as §1
# [5] = tested on: ivy-leaved morning glory (Ipomoea hederacea); assay: Test G Post-Emergence Protocol; conditions: Ipomoea, post-emergence, 312 h; for pest or weed control at 15.625 g/ha: 15.625 g ai/ha, evaluated after 13 days (100=total damage to plant; 0=no damage to plant), read-out: Morningglory, Ivy-leaved damage rating; for pest or weed control at 62.5 g/ha: 62.5 g ai/ha, read-out: Morningglory, Ivy-leaved damage rating (100=total damage to plant; 0=no damage to plant); for pest or weed control at 62.5 g/ha / pest or weed control at 250 g/ha: evaluated after 13 days; for pest or weed control at 250 g/ha: 250 g ai/ha, read-out: damage to plant, Morningglory, Ivy-leaved (100=total damage to plant; 0=no damage to plant)
# Outline: as §1
# [6] = tested on: redroot pigweed (Amaranthus retroflexus); assay: Test G Post-Emergence Protocol; conditions: Amaranthus retroflexus, post-emergence, 312 h; for pest or weed control at 15.625 g/ha: 15.625 g ai/ha, evaluated after 13 days (100=total damage to plant; 0=no damage to plant), read-out: Pigweed, Redroot damage rating; for pest or weed control at 62.5 g/ha: 62.5 g ai/ha, read-out: Pigweed, Redroot damage rating (100=total damage to plant; 0=no damage to plant); for pest or weed control at 62.5 g/ha / pest or weed control at 250 g/ha: evaluated after 13 days; for pest or weed control at 250 g/ha: 250 g ai/ha, read-out: damage to plant, Pigweed, Redroot (100=total damage to plant; 0=no damage to plant)
# Outline: as §1
# [7] = tested on: velvetleaf (Abutilon theophrasti); assay: Test G Pre-Emergence Protocol; conditions: Abutilon theophrasti, pre-emergence, 312 h, evaluated after 13 days; for pest or weed control at 15.625 g/ha: 15.625 g ai/ha; for pest or weed control at 15.625 g/ha / pest or weed control at 250 g/ha: read-out: Velvetleaf damage rating (100=total damage to plant; 0=no damage to plant); for pest or weed control at 62.5 g/ha: 62.5 g ai/ha, 100=total damage to plant, 0=no damage to plant, read-out: plant damage rating, Velvetleaf; for pest or weed control at 250 g/ha: 250 g ai/ha
# Outline: (§2)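 Scores are visual damage ratings from 0 (no damage) to 100 (total plant kill), taken 13 days after treatment. Compound was sprayed one day post-sowing at 15.625, 62.5 or 250 g/ha in 50:50 acetone/water with 0.5% Tween 20.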
# corn (Zea mays) [8] = assay: Test G Pre-Emergence Protocol; conditions: Zea mays, pre-emergence, 312 h, evaluated after 13 days; for plant injury at 15.625 g/ha: 15.625 g ai/ha; for plant injury at 15.625 g/ha / plant injury at 250 g/ha: read-out: Corn damage rating (100=total damage to plant; 0=no damage to plant); for plant injury at 62.5 g/ha: 62.5 g ai/ha, 100=total damage to plant, 0=no damage to plant, read-out: plant damage rating, Corn; for plant injury at 250 g/ha: 250 g ai/ha
# Outline: as §2
# [9] = tested on: giant foxtail (Setaria faberi); assay: Test G Pre-Emergence Protocol; conditions: Setaria faberi, pre-emergence, 312 h, evaluated after 13 days; for pest or weed control at 15.625 g/ha: 15.625 g ai/ha; for pest or weed control at 15.625 g/ha / pest or weed control at 250 g/ha: read-out: Foxtail, Giant damage rating (100=total damage to plant; 0=no damage to plant); for pest or weed control at 62.5 g/ha: 62.5 g ai/ha, 100=total damage to plant, 0=no damage to plant, read-out: plant damage rating, Foxtail, Giant; for pest or weed control at 250 g/ha: 250 g ai/ha
# Outline: as §2
# [10] = tested on: barnyardgrass (Echinochloa crus-galli); assay: Test G Pre-Emergence Protocol; conditions: Echinochloa crus-galli, pre-emergence, 312 h, evaluated after 13 days; for pest or weed control at 15.625 g/ha: 15.625 g ai/ha, read-out: Barnyard grass damage rating (100=total damage to plant; 0=no damage to plant); for pest or weed control at 62.5 g/ha: 62.5 g ai/ha, 100=total damage to plant, 0=no damage to plant, read-out: plant damage rating, Barnyardgrass; for pest or weed control at 250 g/ha: 250 g ai/ha, read-out: Barnyardgrass damage rating (100=total damage to plant; 0=no damage to plant)
# Outline: as §2
# [11] = tested on: ivy-leaved morning glory (Ipomoea hederacea); assay: Test G Pre-Emergence Protocol; conditions: Ipomoea, pre-emergence, 312 h, evaluated after 13 days; for pest or weed control at 15.625 g/ha: 15.625 g ai/ha, read-out: Morning-glory, Ivy-leaved damage rating (100=total damage to plant; 0=no damage to plant); for pest or weed control at 62.5 g/ha: 62.5 g ai/ha, 100=total damage to plant, 0=no damage to plant, read-out: plant damage rating, Morningglory, Ivy-leaved; for pest or weed control at 250 g/ha: 250 g ai/ha, read-out: Morningglory, Ivy-leaved damage rating (100=total damage to plant; 0=no damage to plant)
# Outline: as §2
# [12] = tested on: redroot pigweed (Amaranthus retroflexus); assay: Test G Pre-Emergence Protocol; conditions: Amaranthus retroflexus, pre-emergence, 312 h, evaluated after 13 days; for pest or weed control at 15.625 g/ha: 15.625 g ai/ha; for pest or weed control at 15.625 g/ha / pest or weed control at 250 g/ha: read-out: Pigweed, Redroot damage rating (100=total damage to plant; 0=no damage to plant); for pest or weed control at 62.5 g/ha: 62.5 g ai/ha, 100=total damage to plant, 0=no damage to plant, read-out: plant damage rating, Pigweed, Redroot; for pest or weed control at 250 g/ha: 250 g ai/ha
# Outline: as §2
Structure (SMILES),pest or weed control at 15.625 g/ha [1],pest or weed control at 62.5 g/ha [1],pest or weed control at 250 g/ha [1],plant injury at 15.625 g/ha (corn (Zea mays) [2]),plant injury at 62.5 g/ha (corn (Zea mays) [2]),plant injury at 250 g/ha (corn (Zea mays) [2]),pest or weed control at 15.625 g/ha [3],pest or weed control at 62.5 g/ha [3],pest or weed control at 250 g/ha [3],pest or weed control at 15.625 g/ha [4],pest or weed control at 62.5 g/ha [4],pest or weed control at 250 g/ha [4],pest or weed control at 15.625 g/ha [5],pest or weed control at 62.5 g/ha [5],pest or weed control at 250 g/ha [5],pest or weed control at 15.625 g/ha [6],pest or weed control at 62.5 g/ha [6],pest or weed control at 250 g/ha [6],pest or weed control at 15.625 g/ha [7],pest or weed control at 62.5 g/ha [7],other results
Cc1cc(NC(=O)[C@@H]2C(=O)N(C)C[C@H]2c2ccc(C(F)(F)F)cc2)ccc1F (racemic) [Compound 1593],0%,0%,0%,0%,10%,10%,0%,10%,70%,0%,0%,20%,0%,0%,0%,0%,0%,0%,0%,0%,pest or weed control at 250 g/ha [7]: 0%; plant injury at 15.625 g/ha (corn (Zea mays) [8]): 0%; plant injury at 62.5 g/ha (corn (Zea mays) [8]): 0%; plant injury at 250 g/ha (corn (Zea mays) [8]): 0%; pest or weed control at 15.625 g/ha [9]: 0%; pest or weed control at 62.5 g/ha [9]: 10%; pest or weed control at 250 g/ha [9]: 70%; pest or weed control at 15.625 g/ha [10]: 0%; pest or weed control at 62.5 g/ha [10]: 0%; pest or weed control at 250 g/ha [10]: 20%; pest or weed control at 15.625 g/ha [11]: 0%; pest or weed control at 62.5 g/ha [11]: 0%; pest or weed control at 250 g/ha [11]: 0%; pest or weed control at 15.625 g/ha [12]: 0%; pest or weed control at 62.5 g/ha [12]: 0%; pest or weed control at 250 g/ha [12]: 0%
Cc1ncc(NC(=O)[C@@H]2C(=O)N(C)C[C@H]2c2ccc(C(F)(F)F)cc2)s1 (racemic) [Compound 1595],0%,10%,10%,0%,60%,0%,0%,0%,10%,10%,10%,10%,0%,60%,20%,0%,10%,20%,0%,0%,pest or weed control at 250 g/ha [7]: 0%; plant injury at 15.625 g/ha (corn (Zea mays) [8]): 0%; plant injury at 62.5 g/ha (corn (Zea mays) [8]): 0%; plant injury at 250 g/ha (corn (Zea mays) [8]): 0%; pest or weed control at 15.625 g/ha [9]: 0%; pest or weed control at 62.5 g/ha [9]: 0%; pest or weed control at 250 g/ha [9]: 0%; pest or weed control at 15.625 g/ha [10]: 0%; pest or weed control at 62.5 g/ha [10]: 0%; pest or weed control at 250 g/ha [10]: 0%; pest or weed control at 15.625 g/ha [11]: 0%; pest or weed control at 62.5 g/ha [11]: 0%; pest or weed control at 250 g/ha [11]: 0%; pest or weed control at 15.625 g/ha [12]: 0%; pest or weed control at 62.5 g/ha [12]: 0%; pest or weed control at 250 g/ha [12]: 0%
COc1cccc(NC(=O)[C@@H]2C(=O)N(C)C[C@H]2c2ccc(C(F)(F)F)cc2)n1 (racemic) [Compound 1601],0%,20%,50%,0%,10%,30%,0%,80%,70%,0%,40%,70%,0%,10%,30%,0%,10%,30%,0%,0%,pest or weed control at 250 g/ha [7]: 0%; plant injury at 15.625 g/ha (corn (Zea mays) [8]): 0%; plant injury at 62.5 g/ha (corn (Zea mays) [8]): 0%; plant injury at 250 g/ha (corn (Zea mays) [8]): 0%; pest or weed control at 15.625 g/ha [9]: 0%; pest or weed control at 62.5 g/ha [9]: 20%; pest or weed control at 250 g/ha [9]: 80%; pest or weed control at 15.625 g/ha [10]: 0%; pest or weed control at 62.5 g/ha [10]: 10%; pest or weed control at 250 g/ha [10]: 70%; pest or weed control at 15.625 g/ha [11]: 0%; pest or weed control at 62.5 g/ha [11]: 0%; pest or weed control at 250 g/ha [11]: 0%; pest or weed control at 15.625 g/ha [12]: 0%; pest or weed control at 62.5 g/ha [12]: 0%; pest or weed control at 250 g/ha [12]: 50%

# Reference: patent publication US12077503B2, “Substituted cyclic amides and their use as herbicides” (FMC CORPORATION, priority 2015, dated 2024)
